Measured values: the NIST ThermoML archive (doi:10.1021/je9006629)

Assays:
[1] = Liquid; for Normal boiling temperature: Distillation
[2] = refractive index (Na D-line) (dimensionless); xn = mol fraction of the nth substance listed; conditions: 293.15 K, 101 kPa, Liquid, Standard Abbe refractometry

CCCCO [butan-1-ol]
[1]
Conditions	vapor or sublimation pressure [kPa]
356.35 K	25.3
359.45 K	29.3
362.95 K	33.5
368.6 K	42.8
373.45 K	52.5
373.85 K	53.3
377.3 K	61.2
381.9 K	72.8
386.05 K	84.9
387.75 K	91.3
391.95 K	105.3
395.8 K	120.1

Conditions	Normal boiling temperature [°C]
[1]	117.80

CCCCO [butan-1-ol] + CCCCCCC
[2]
Conditions	refractive index
x1 = 0.1121	1.3889
x1 = 0.1897	1.3898
x1 = 0.2845	1.3909
x1 = 0.3707	1.3919
x1 = 0.4655	1.393
x1 = 0.5	1.3934
x1 = 0.5862	1.3944
x1 = 0.681	1.3955
x1 = 0.7586	1.3964
x1 = 0.8276	1.3972
x1 = 0.9224	1.3983
x1 = 1	1.3992

CCCCCCC [heptane]
[1]
Conditions	vapor or sublimation pressure [kPa]
332.9 K	27.1
335.2 K	29.9
336.85 K	32.3
340.55 K	36.9
343.75 K	41.3
348.55 K	48.9
351.45 K	53.3
351.5 K	53.3
352.35 K	55.3
357.25 K	65.3
363.15 K	78.7
368.45 K	91.3
368.55 K	92.7
371.35 K	100.8
374 K	108.8

Conditions	Normal boiling temperature [°C]
[1]	98.50

CCCCCCC [heptane] + CCCCCO
Conditions	refractive index
[2], x2 = 0	1.3876

CCCCCCC [heptane] + CCCCO
Conditions	refractive index
[2], x2 = 0	1.3876

CCCCCO [pentan-1-ol]
[1]
Conditions	vapor or sublimation pressure [kPa]
379.35 K	31.2
382.4 K	35.3
385.65 K	40
390.75 K	49.2
393.2 K	53.3
394.7 K	56.9
400.05 K	69.3
404.6 K	81.3
408.15 K	91.3
409 K	94.5
411.35 K	101.9
414.65 K	113.3

Conditions	Normal boiling temperature [°C]
[1]	138.0

CCCCCO [pentan-1-ol] + CCCCCCC
[2]
Conditions	refractive index
x1 = 0.0755	1.3893
x1 = 0.1601	1.3912
x1 = 0.2844	1.394
x1 = 0.3511	1.3955
x1 = 0.4622	1.398
x1 = 0.5821	1.4007
x1 = 0.6845	1.403
x1 = 0.7732	1.4051
x1 = 0.8978	1.4078
x1 = 1	1.4101
